Measurements published in US4542137A, “Alkylaminodesoxy-1.4;3.6-dianhydrohexitol nitrates substituted by purine bases and pharmaceutical compositions” (priority 1980, dated 1985).
Where two headings read alike, the source gives them in different places.

How the values were obtained:
[1] = tested on: isolated guinea pig hearts; assay: coronary flowthrough-increasing effectiveness on isolated guinea pig hearts according to Langendorff; conditions: Cavia porcellus, 25 μg/ml in tyrode solution, Langendorff heart; for activation at 25 µg/mL: read-out: flowthrough (coronary), percentage change in comparison with the initial value
Description: After achieving the stationary state in the 30th minute, the hearts were each infused with 50 ml. tyrode solution with a content of test substance of, in each case, 25 μg./ml. Each test substance was tested on 3-6 hearts.
In each case, there was measured the inotropism, the flowthrough and the frequency, whereby the values given in Table I are average values of the percentage changes in comparison with the starting values.

[2] = examination of acute toxicity, i.v., female NMRI-albino mice; format: in vivo; conditions: mouse, in vivo, iv, mice, 24 hours; read-out: Evaluated LD50-range
Description: (§1) . The compounds were injected to at least 3 animals per dose. If no animal had yet been died following to the highest dose which was administered, no more doses of substances were tested. In case of doubt, the examination was repeated with at least 3 more animals applying the same dose.
(§2) The rate of death within 24 hours after administration was observed.
(§3) In table IX, the determined rates of death as well as the LD50 -ranges evaluated therefrom are shown.

female NMRI-albino mice = assay: as above; format: in vivo; conditions: within 24 hours; for Frequency of death with an intravenous dose of 100 mg/kg: 100 mg/kg i.v.; for Frequency of death with an intravenous dose of 200 mg/kg: 200 mg/kg i.v.; for Frequency of death with an intravenous dose of 50 mg/kg: 50 mg/kg i.v.
Description: as §1, §2, §3

[3] = tested on: isolated rat aorta preparations; assay: spasmolytic effectiveness on isolated rat aorta preparations (noradrenaline- and potassium chloride-induced contractions)
[4] = read-out: frequency, percentage change in comparison with the initial value
[5] = read-out: inotropism, percentage change in comparison with the initial value
[6] = read-out: ED50 for spasmolytic action, Noradrenaline spasm (50% inhibition)
[7] = read-out: ED50 for spasmolytic action, potassium chloride spasm (50% inhibition)

Structure (SMILES) | activation at 25 µg/mL [1] [%] | inhibition at 25 µg/mL [1, 4] [%] | inhibition at 25 µg/mL [1, 5] [%] | LD50 at 24 h [2] [mg/kg] | Frequency of death with an intravenous dose of 100 mg/kg (female NMRI-albino mice) | Frequency of death with an intravenous dose of 200 mg/kg (female NMRI-albino mice) | IC50 [3, 6] [µM] | IC50 [3, 7] [µM] | Frequency of death with an intravenous dose of 50 mg/kg (female NMRI-albino mice) | percent change from initial value at 25 µg/mL [1, 4] [%]
Cn1c(=O)c2c(ncn2CCN[C@H]2CO[C@H]3[C@@H]2OC[C@@H]3O[N+](=O)[O-])n(C)c1=O [Example 2, 5-(2-Theophyllin-7-ylethyl)-amino-5-desoxy-1.4;3.6-dianhydro-L-iditol 2-nitrate] | 34.7 | -3.5 | 4.6 | ≥ 200 | 0/3 | 1/3 | 4.2 | 30.5 |  | 
Cn1c(=O)c2c(ncn2CCCCN[C@H]2CO[C@H]3[C@@H]2OC[C@@H]3O[N+](=O)[O-])n(C)c1=O [Example 3, 5-(4-Theophyllin-7-ylbutyl)-amino-5-desoxy-1.4;3.6-dianhydro-L-iditol 2-nitrate] | 36.4 | 4.8 | 3.82 | > 200 |  | 0/6 | 2.6 | 3.6 |  | 
Cn1c(=O)c2c(ncn2CCCCCN[C@H]2CO[C@H]3[C@@H]2OC[C@@H]3O[N+](=O)[O-])n(C)c1=O [Example 4, 5-(5-Theophyllin-7-ylpentyl)-amino-5-desoxy-1.4;3.6-dianhydro-L-iditol 2-nitrate] | 55.7 | 8.41 | 5.44 | 100 to 200 | 0/10 | 10/10 | 2.7 | 3.8 |  | 
Cn1c(=O)c2c(ncn2CCCCCCN[C@H]2CO[C@H]3[C@@H]2OC[C@@H]3O[N+](=O)[O-])n(C)c1=O [Example 5, 5-(6-Theophyllin-7-ylhexyl)-amino-5-desoxy-1.4;3.6-dianhydro-L-iditol 2-nitrate] | 61.9 | 11.1 | 43.3 | ≥ 100 | 4/10 | 10/10 | 0.36 | 2.4 | 0/10 | 
Cn1c(=O)c2c(ncn2CC(O)CN[C@H]2CO[C@H]3[C@@H]2OC[C@@H]3O[N+](=O)[O-])n(C)c1=O (stereo partly drawn) [Example 6, 5-(2-Hydroxy-3-theophyllin-7-ylpropyl)-amino-5-desoxy-1.4;3.6-dianhydro-L-iditol 2-nitrate] | 53.3 | -3.39 | -4.5 |  |  |  | 1.12 | 18 |  | 
Cn1cnc2c1c(=O)n(CCCN[C@H]1CO[C@H]3[C@@H]1OC[C@@H]3O[N+](=O)[O-])c(=O)n2C [Example 7c, 5-[3-(3,7-Dimethylxanthin-1-yl)-propylamino]-5-desoxy-1.4;3.6-dianhydro-L-iditol 2-nitrate] | 28.9 |  | -10.5 | > 200 |  | 0/6 |  |  |  | 0
CC(C)Cn1c(=O)n(C)c(=O)c2c1ncn2CCCN[C@H]1CO[C@H]2[C@@H]1OC[C@@H]2O[N+](=O)[O-] [Example 8c, 5-[3-(3-Isobutyl-1-methylxanthin-7-yl)-propylamino]-5-desoxy-1.4;3.6-dianhydro-L-iditol 2-nitrate] |  |  |  | 100 to 200 | 0/3 | 11/13 |  |  |  | 
Cn1c(=O)c2c(ncn2CCCN[C@@H]2CO[C@H]3[C@@H]2OC[C@@H]3O[N+](=O)[O-])n(C)c1=O [Example 10c, 5-(3-Theophyllin-7-ylpropyl)-amino-5-desoxy-1.4;3.6-dianhydro-D-glucitol 2-nitrate] | 13 | 5.6 | 6.4 | > 200 |  | 0/6 |  |  |  | 
Cn1c(=O)c2c(ncn2CCCN[C@H]2CO[C@H]3[C@@H]2OC[C@H]3O[N+](=O)[O-])n(C)c1=O [Example 11d, 2-(3-Theophyllin-7-ylpropyl)-amino-2-desoxy-1.4;3.6-dianhydro-D-glucitol 5-nitrate] |  |  |  | > 200 |  | 0/6 |  |  |  | 
Cn1c(=O)c2c(ncn2CCCN[C@@H]2CO[C@H]3[C@@H]2OC[C@H]3O[N+](=O)[O-])n(C)c1=O [Example 12d, 5-(3-Theophyllin-7-ylpropyl)-amino-5-desoxy-1.4;3.6-dianhydro-D-mannitol 2-nitrate] |  |  |  | > 200 |  | 0/6 |  |  |  | 
Nc1ncnc2c1ncn2CCN[C@H]1CO[C@H]2[C@@H]1OC[C@@H]2O[N+](=O)[O-] [Example 13, 5-(2-Adenin-9-ylethyl)-amino-5-desoxy-1.4;3.6-dianhydro-L-iditol 2-nitrate] | 12.2 |  | -2.3 | > 200 |  | 0/6 |  |  |  | 0
Nc1ncnc2c1ncn2CCCN[C@H]1CO[C@H]2[C@@H]1OC[C@@H]2O[N+](=O)[O-] [Example 14, 5-(3-Adenin-9-ylpropyl)-amino-5-desoxy-1.4;3.6-dianhydro-L-iditol 2-nitrate] | 55.8 |  | -3.8 |  |  |  | 1.4 | 43.9 |  | 0
Nc1ncnc2c1ncn2CCCCN[C@H]1CO[C@H]2[C@@H]1OC[C@@H]2O[N+](=O)[O-] [Example 15, 5-(4-Adenin-9-ylbutyl)-amino-5-desoxy-1.4;3.6-dianhydro-L-iditol 2-nitrate] | 47.1 | 3.45 | -3.85 | < 50 | 3/3 | 3/3 |  |  | 3/3 | 
Nc1ncnc2c1ncn2CCCCCN[C@H]1CO[C@H]2[C@@H]1OC[C@@H]2O[N+](=O)[O-] [Example 16, 5-(5-Adenin-9-ylpentyl)-amino-5-desoxy-1.4;3.6-dianhydro-L-iditol 2-nitrate] | 22.5 | 6.8 | -6.5 | 100 to 200 | 0/10 | 10/10 |  |  |  | 
Nc1ncnc2c1ncn2CCCCCCN[C@H]1CO[C@H]2[C@@H]1OC[C@@H]2O[N+](=O)[O-] [Example 17, 5-(6-Adenin-9-ylhexyl)-amino-5-desoxy-1.4;3.6-dianhydro-L-iditol 2-nitrate] | 60.6 | 3.6 | 11.5 | 50 to 100 | 2/3 | 3/3 |  |  | 0/10 | 
